Data reported in ChEMBL document CHEMBL1151840, “Synthetic oligoribonucleotides containing arabinonucleotides act as agonists of TLR7 and 8” (Bioorg Med Chem Lett, 2009).

System: Serum
Assay: Stability in human serum assessed as full-length compound remaining after 10 mins by anion-exchange HPLC
Type: ADME, cell-free
Settings: 10 min

## Nc1ccn([C@@H]2O[C@H](COP(=O)(S)O[C@H]3[C@@H](O)[C@H](n4cnc5c(N)ncnc54)O[C@@H]3COP(=O)(S)O[C@H]3[C@@H](O)[C@H](n4cnc5c(=O)[nH]c(N)nc54)O[C@@H]3COP(=O)(S)O[C@H]3[C@@H](O)[C@H](n4ccc(=O)[nH]c4=O)O[C@@H]3COP(=O)(S)O[C@H]3[C@@H](O)[C@H](n4cnc5c(=O)[nH]c(N)nc54)O[C@@H]3COP(=O)(S)O[C@H]3[C@@H](O)[C@H](n4ccc(=O)[nH]c4=O)O[C@@H]3COP(=O)(S)O[C@H]3[C@@H](O)[C@H](n4cnc5c(=O)[nH]c(N)nc54)O[C@@H]3COP(=O)(S)O[C@H]3[C@@H](O)[C@H](n4ccc(=O)[nH]c4=O)O[C@@H]3COP(=O)(S)O[C@H]3[C@@H](O)[C@H](n4ccc(=O)[nH]c4=O)O[C@@H]3COP(=O)(S)O[C@H]3[C@@H](O)[C@H](n4cnc5c(=O)[nH]c(N)nc54)O[C@@H]3COP(=O)(S)O[C@H]3[C@@H](O)[C@H](n4ccc(=O)[nH]c4=O)O[C@H]3CO)[C@@H](OP(=O)(S)OCC(O)COP(=O)(S)O[C@H]3[C@@H](O)[C@H](n4ccc(N)nc4=O)O[C@@H]3COP(=O)(S)O[C@H]3[C@@H](O)[C@H](n4cnc5c(N)ncnc54)O[C@@H]3COP(=O)(S)O[C@H]3[C@@H](O)[C@H](n4cnc5c(=O)[nH]c(N)nc54)O[C@@H]3COP(=O)(S)O[C@H]3[C@@H](O)[C@H](n4ccc(=O)[nH]c4=O)O[C@@H]3COP(=O)(S)O[C@H]3[C@@H](O)[C@H](n4cnc5c(=O)[nH]c(N)nc54)O[C@@H]3COP(=O)(S)O[C@H]3[C@@H](O)[C@H](n4ccc(=O)[nH]c4=O)O[C@@H]3COP(=O)(S)O[C@H]3[C@@H](O)[C@H](n4cnc5c(=O)[nH]c(N)nc54)O[C@@H]3COP(=O)(S)O[C@H]3[C@@H](O)[C@H](n4ccc(=O)[nH]c4=O)O[C@@H]3COP(=O)(S)O[C@H]3[C@@H](O)[C@H](n4ccc(=O)[nH]c4=O)O[C@@H]3COP(=O)(S)O[C@H]3[C@@H](O)[C@H](n4cnc5c(=O)[nH]c(N)nc54)O[C@@H]3COP(=O)(S)O[C@H]3[C@@H](O)[C@H](n4ccc(=O)[nH]c4=O)O[C@@H]3CO)[C@H]2O)c(=O)n1 (stereo in doubt; 5)
  Stability: 75%
